Source: patent publication EP0799174B1, “BIOCIDAL ALCOHOLS, THEIR PRODUCTION AND THEIR USE” (SCHÜLKE & MAYR GMBH, priority 1994, dated 1996)

Key:
Format in all cases: cell-based
[1] = test system: Aspergillus niger ATCC 6275; test: MIC values, water-insoluble (covered area of plates, solutions in acetone); conditions: solution in acetone, 100% means no inhibiting action
Excerpt: (§1) [table] The size of the covered areas of the plates is given in %; 100% means no inhibiting action.

[2] = test system: Candida albicans ATCC 10231; test: as above; conditions: solution in acetone, 100% means no inhibiting action
Excerpt: as §1

[3] = test system: Escherichia coli ATCC 11229; test: as above; conditions: solution in acetone, 100% means no inhibiting action
Excerpt: as §1

[4] = test system: Staphylococcus aureus ATCC 6538; test: as above; conditions: solution in acetone, 100% means no inhibiting action
Excerpt: as §1

[5] = test system: Candida albicans ATCC 10231; test: Plate diffusion test (agar diffusion test); conditions: aromatic alcohol 1 part, dimethylformamide 6 parts
Excerpt: (§2) Standard formulation: • aromatic alcohol 1 part • dimethylformamide 6 parts [table] The diameters of the inhibition zones are given in mm.

[6] = test system: Escherichia coli ATCC 11229; test: Plate diffusion test (agar diffusion test); conditions: aromatic alcohol 1 part, dimethylformamide 6 parts
Excerpt: as §2

[7] = test system: Pseudomonas aeruginosa ATCC 15442; test: Plate diffusion test (agar diffusion test); conditions: aromatic alcohol 1 part, dimethylformamide 6 parts
Excerpt: as §2

[8] = test system: Staphylococcus aureus ATCC 6538; test: Plate diffusion test (agar diffusion test); conditions: aromatic alcohol 1 part, dimethylformamide 6 parts
Excerpt: as §2

P. vulgaris = test system: P. vulgaris
Excerpt: as §2

| SMILES | size of the covered areas of the plates, A. niger ([1]; concentration 0.50 % by wt.) [%] | size of the covered areas of the plates, A. niger ([1]; concentration 1.00 % by wt.) [%] | size of the covered areas of the plates, C. albicans ([2]; concentration 0.50 % by wt.) [%] | size of the covered areas of the plates, C. albicans ([2]; concentration 1.00 % by wt.) [%] | size of the covered areas of the plates, E. coli ([3]; concentration 0.50 % by wt.) [%] | size of the covered areas of the plates, E. coli ([3]; concentration 1.00 % by wt.) [%] | size of the covered areas of the plates, S. aureus ([4]; concentration 0.50 % by wt.) [%] | size of the covered areas of the plates, S. aureus ([4]; concentration 1.00 % by wt.) [%] | diameters of the inhibition zones, C. albicans [5] [mm] | diameters of the inhibition zones, E. coli [6] [mm] | diameters of the inhibition zones, P. aeruginosa [7] [mm] | diameters of the inhibition zones, S. aureus [8] [mm] | diameters of the inhibition zones, P. vulgaris (P. vulgaris) [mm] | size of the covered areas of the plates, A. niger ([1]; concentration 0.25 % by wt.) [%] | size of the covered areas of the plates, C. albicans ([2]; concentration 0.25 % by wt.) [%] | size of the covered areas of the plates, E. coli ([3]; concentration 0.25 % by wt.) [%] | size of the covered areas of the plates, S. aureus ([4]; concentration 0.25 % by wt.) [%] | other results |
| --- | --- | --- | --- | --- | --- | --- | --- | --- | --- | --- | --- | --- | --- | --- | --- | --- | --- | --- |
| CCC(CO)Cc1ccccc1C (stereo not shown) [Alcohol 12] | 100 | 80 | 100 | 80 | 100 | 100 | 100 | 90 | 22 | 17 | 15 | 20 | 13 | – | – | – | – | – |
| CCC(CO)Cc1ccc(OC)c(OC)c1 (stereo not shown) [Alcohol 16] | – | – | – | – | – | – | – | – | 28 | 17 | 18 | 18 | 17 | – | – | – | – | – |
| CCC(CO)Cc1ccc(C)c(C)c1 (stereo not shown) [Alcohol 14] | 80 | 10 | 100 | 20 | 100 | 100 | 90 | 30 | 22 | 15 | 18 | 18 | 0 | 90 | 100 | 100 | 100 | size of the covered areas of the plates, A. niger ([1]; concentration 0.125 % by wt.): 100%; size of the covered areas of the plates, C. albicans ([2]; concentration 0.125 % by wt.): 100%; size of the covered areas of the plates, E. coli ([3]; concentration 0.125 % by wt.): 100%; size of the covered areas of the plates, S. aureus ([4]; concentration 0.125 % by wt.): 100% |
| CCC(CO)Cc1ccc(Cl)c(Cl)c1 (stereo not shown) [Alcohol 11] | 70 | 10 | 80 | 10 | 100 | 90 | 90 | 5 | 13 | 0 | 0 | 17 | 0 | 100 | 100 | 100 | 100 | – |
| CCC(CO)Cc1ccc(Cl)cc1 (stereo not shown) [Alcohol 10] | 70 | 10 | 90 | 10 | 100 | 100 | 100 | 10 | 15 | 11 | 0 | 14 | 0 | 90 | 100 | 100 | 100 | size of the covered areas of the plates, A. niger ([1]; concentration 0.125 % by wt.): 100%; size of the covered areas of the plates, C. albicans ([2]; concentration 0.125 % by wt.): 100%; size of the covered areas of the plates, E. coli ([3]; concentration 0.125 % by wt.): 100%; size of the covered areas of the plates, S. aureus ([4]; concentration 0.125 % by wt.): 100% |
| C=CCC(CO)Cc1ccccc1 (stereo not shown) [Alcohol 17] | 100 | 80 | 100 | 100 | 100 | 90 | 100 | 100 | 17 | 13 | 12 | 16 | 13 | – | – | – | – | – |
| CCC(CO)Cc1ccc(C)cc1 (stereo not shown) [Alcohol 13] | 90 | 20 | 100 | 90 | 100 | 95 | 100 | 90 | 19 | 13 | 13 | 16 | 14 | 100 | 100 | 100 | 100 | – |
| CCCCCC(CO)Cc1ccccc1 (stereo not shown) [Alcohol 18] | 40 | 0 | 80 | 70 | 100 | 100 | 20 | 0 | 11 | 0 | 0 | 11 | 0 | 100 | 100 | 100 | 100 | – |
| CCC(CO)Cc1ccccc1Cl (stereo not shown) [Alcohol 9] | 90 | 20 | 100 | 80 | 100 | 100 | 100 | 80 | 15 | 11 | 0 | 15 | 0 | 100 | 100 | 100 | 100 | – |
| CCC(CO)Cc1cccc(OC)c1 (stereo not shown) [Alcohol 15] | 100 | 90 | 100 | 100 | 100 | 100 | 100 | 100 | 23 | 18 | 15 | 18 | 18 | – | – | – | – | – |
